Source: article PMC10562414, “GLP-1R signaling neighborhoods associate with the susceptibility to adverse drug reactions of incretin mimetics” (Nature Communications, 2023)

Legend:
[1] = test system: GLP-1R-expressing HEK293 cells + Dyngo-4A (phosphoproteome); assay: Phosphoproteomics, GLP-1R-transfected cells with internalization inhibitor Dyngo-4A, 30 min; format: cell-based, human; conditions: 1 μM, 30 min, vs vehicle, n = 3
Experimental: (§1) P values were calculated by a two-sided unpaired t-test.
(§2) HEK293 cells (350,000 cells/mL) were transfected in suspension using 3 μg of linear PEI (MW 25,000) per 1 μg of plasmid DNA and seeded onto poly-D-lysine-coated 60 mm dishes at a density of 1,750,000 cells per dish. After a 24-h incubation, cells were washed twice with PBS and placed in starvation media (DMEM with penicillin/streptomycin). After a 48-h incubation, cells were washed twice with HBSS and maintained in the same buffer. […] Cell extracts were prepared as previously described[64]–[66]. In short, 200 μL of the lysis buffer preheated at 95 °C (4% sodium dodecyl sulfate in 50 mM Tris adjusted to pH 8.5) was added to the cells. The samples were then denatured at 95 °C for 10 min, placed on ice and then sonicated using a probe sonicator (3 sec on, 3 sec off pulse, 1 min, 30% amplitude) (Branson). Lysate protein concentration was determined using the Pierce bicinchoninic acid assay kit (Thermo Fisher Scientific) according to the manufacturer’s instructions. The lysates were reduced using 5 mM dithiothreitol for 1 h at room temperature and alkylated using 15 mM iodoacetamide for 1 h at room temperature in the dark. Proteins were precipitated and digested on beads using MagReSyn Amine magnetic beads (ReSyn Biosciences) according to the manufacturer’s instructions. Protein digestion was conducted overnight at 37 °C with lysyl endopeptidase (LysC, Wako) (1:150 LysC/protein, w/w) and trypsin (1:300 trypsin/protein, w/w). 20% TFA, 2 M glycolic acid in 80% ACN were added to the samples at a 1:1 ratio for phosphopeptide enrichment using MagReSyn TiO2 magnetic beads (ReSyn Biosciences) according to the manufacturer’s instructions. The enriched phosphopeptides were dried overnight in a SpeedVac, resuspended into 5% formic acid (FA), desalted using StageTip (Thermo Fisher Scientific) according to the manufacturer’s instructions and dried in a SpeedVac. The experiment was performed in biological triplicates.
(§3) All parameters and settings regarding the acquisition of the proteomics data can be found in Supplementary Data 11, 12. For data acquisition, the instrument was set to peptide mode, with a trapping pressure set as low (2mTorr). An EASY-Spray Source (Thermo Fisher Scientific) was used and the column temperature was maintained with the integrated, temperature-controlled heater at 55 °C throughout the experiment. For the data presented in Fig. 5d, the column was heated at 50 °C following the manufacturer’s instructions (IonOpticks).
(§4) Acquired raw files were converted to mzML format by MSConvert (version 3.0.21258)[67] applying peak picking of the mass spectra with the vendor-provided algorithm (Thermo Fisher Scientific). The mzML files were analyzed using the FragPipe GUI v18 for both library and DIA search. […] Trypsin with up to 2 missed cleavages was set as digestion enzyme, oxidation of methionine, acetylation of the N-terminus and phosphorylation on serine, threonine and tyrosine (maximal occurrence was set to three) were set as variable modifications. Carbamidomethylation of cysteine residues was set as a fixed modification. Peptide length was restricted to 7 to 50 amino acids, and 500 to 5000 Da. The precursor tolerance was set to ±20 ppm, fragment mass tolerance to 20 ppm and MSBooster was enabled. The resulting peptide-spectrum matches were adjusted to a 1% false discovery rate with Percolator[69] as part of the Philosopher toolkit (v4.4)[70] and converted to a spectra library. DIA files were analyzed by DIA-NN 1.8.1[71], [72] using the previously generated library and monitor-command mode. Peptide quantification was performed based on the fragment elution profiles from the MS2 level (area under the curve).
All further data processing was performed in R (version 4.2.1). Only phosphopeptides with a localization score of at least 0.75 were considered for further analysis. […]

GLP-1R [2] = molecular target: T1, GLP-1R (Homo sapiens, UniProt P43220); assay: ebBRET pathway activation (15 pathways) at early endosomes (rGFP-FYVE); format: cell-based; conditions: for Efficacy (normalized) / Potency (logEC50) / Emax: Early endosomes
T1 sequence (P43220 24-463): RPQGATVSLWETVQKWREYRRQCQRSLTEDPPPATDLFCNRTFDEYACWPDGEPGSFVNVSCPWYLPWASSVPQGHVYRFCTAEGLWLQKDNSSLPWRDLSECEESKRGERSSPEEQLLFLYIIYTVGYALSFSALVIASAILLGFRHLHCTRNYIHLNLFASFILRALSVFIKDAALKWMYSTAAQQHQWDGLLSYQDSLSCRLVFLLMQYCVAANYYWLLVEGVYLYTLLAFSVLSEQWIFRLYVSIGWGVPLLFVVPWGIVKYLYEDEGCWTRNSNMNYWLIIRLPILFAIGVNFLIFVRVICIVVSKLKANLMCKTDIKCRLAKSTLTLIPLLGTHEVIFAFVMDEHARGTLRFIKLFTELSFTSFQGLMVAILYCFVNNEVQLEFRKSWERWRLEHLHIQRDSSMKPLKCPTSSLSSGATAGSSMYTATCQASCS
Experimental: Subcellular resolution was achieved by using organelle-specific energy acceptors for early endosomes, the Golgi apparatus and the endoplasmic reticulum.
Data are represented as the mean ± SEM (n = 3 biologically independent experiments). EE early endosomes, GA Golgi apparatus, ER endoplasmic reticulum.
HEK293 cells were cultured in DMEM supplemented with 10% FBS, 1% penicillin/streptomycin, propagated in plastic flasks and grown at 37 °C in 5% CO2 and 90% humidity. […] After a 48-hour incubation, cells were washed once with HBSS and maintained in the same buffer.
Best fit values were excluded if EC50 was outside of the concentration range tested or if the span was negative.
Pharmacological characterization of GLP-1R agonist signaling
profiles at early endosomes. a, Illustration depicting the ebBRET approach to monitoring
signaling at early endosomes. b, Concentration-response curves of GLP-1R agonists across 15
pathways at early endosomes using rGFP-F YVE. Data are represented by the non-linear fit and
scaled according to the highest responding drug (n=3 biologic ally independent samples).
Drug-s pecific polar area diagrams for efficacy (normalized to the highest responding drug) (c)
Drugs were deemed to activate
a given pathway after comparing the top and bottom parameters from non-linear regression by
Jaccard similarity index for efficacy (e) and potency (f) quantifies similarities and
differences across drug responses.
Drug- induced transducer engagement by GLP- 1R at early
endosomes. Agonist concentration response curves for 15 transducers at early endosomes.
Drugs were deemed to activate a given pathway after comparing the top and bottom parameters
from non-linear regression by one-sided extra sum-o f-s quares F-t est followed by Bonferroni
Data are represented as the mean ± SEM (n=3
biologically independent samples). Sigmoidal dose-r esponse curves are present for
responsive pathways and flat lines indicate non-r esponding pathway s.
Polar area diagrams depict pathway activation at early endosomes.
Pathway-specific polar area diagrams for efficacy (normalized to the highest responding drug) (a)
Drugs were deemed to activate a
given pathway after comparing the top and bottom parameters from non-linear regression by

GLP-1R [3] = molecular target: T1, GLP-1R; assay: Hierarchical / k-means / fuzzy clustering of GLP-1R agonist signaling profiles (z-scored Emax and EC50, cluster centers)
From the text: Using ebBRET, we extended our pathway profiling to endosomes, the Golgi apparatus and the endoplasmic reticulum. […] In short, positive k-means cluster centers were indicative of high potency or efficacy in a specific pathway and compartment, whereas negative k-means cluster centers could be interpreted as pathways that were underrepresented or not activated by a given drug cluster (Fig. 6c).
Efficacy and potency were extracted from concentration-response curves and aggregated before k-means clustering. b Hierarchical clustering of GLP-1R agonists based on signaling neighborhood profiles. c Cluster centers of distinct drug clusters identified by k-means clustering. Defining cluster features are listed by rank order, and the top and bottom five features are highlighted for each cluster.
represented as z-scores. Pathways that were not activated by GLP-1R upon exposure to ligand
according to efficacy or potency, compartments, and pathways. Pathways that were not activated
by any drug were removed for clarity. c, Heatmap and hierarchical clustering of efficacy for 8
drugs in 15 pathways and 4 cellular compartments. Data are represented as z-scores.

[4] = test system: GLP-1R-expressing HEK293 cells (phosphoproteome); assay: Phosphoproteomics, GLP-1R-transfected cells, 30 min (experiment 2); format: cell-based, human; conditions: GLP transfection, 1 μM
Experimental: as §1, §2, §3
as §4, with “The precursor tolerance was set to ±20 ppm, fragment mass tolerance to 20 ppm and MSBooster was enabled. The resulting peptide-spectrum matches were adjusted to a 1% false discovery rate with Percolator[69] as part of the Philosopher toolkit (v4.4)[70] and converted to a spectra library.” left out, “curve). […]” for “curve).”

[5] = molecular target: kinase substrates (Kinase Library); assay: Kinase substrate enrichment analysis of regulated phosphopeptides; design: species or system human; conditions: 1 μM
Experimental: All further data processing was performed in R (version 4.2.1). Only phosphopeptides with a localization score of at least 0.75 were considered for further analysis. Peptides quantified with different charge states were aggregated and only phosphopeptides with at least 2 quantifications for each time point, treatment and replicate were kept. Intensities were normalized by median centering and log2-scaling. Missing values were imputed by k-NN imputation. All statistical comparisons were performed based on homoscedastic two-tailed Student’s t-tests. For the kinase substrate enrichment analysis, the Kinase Library online analytical tool[73] was used with predetermined foreground and background sets based on previously determined significance thresholds (P < 0.05; log2 fold change >1). All remaining settings were left as default.

Structure (SMILES): N#Cc1ccc(COc2cccc(C3CCN(Cc4nc5ccc(C(=O)O)cc5n4C[C@@H]4CCO4)CC3)n2)c(F)c1 [Danuglipron]
- log2.foldchange, PABPN1 S19 ([1]; Dyngo internalization inhibitor (50 μM, 30 min pre), p 0.975742): 0.005523
- log2.foldchange, EIF3J S13 ([1]; Dyngo internalization inhibitor, p 0.0121456 (passed all criteria)): 2
- log2.foldchange, EIF3J S11;S13 ([1]; Dyngo internalization inhibitor, p 0.107013): 0.1859
- log2.foldchange, VPS51 S18 ([1]; Dyngo internalization inhibitor, p 0.460124): -0.1867
- log2.foldchange, POLE4 S9;T11 ([1]; Dyngo internalization inhibitor, p 0.765877): -0.2937
- Efficacy (normalized) (GLP-1R [2]; GRK2/Gβγ): 0.507
- Potency (logEC50) (GLP-1R [2]; GRK2/Gβγ): 0.4671
- Efficacy (normalized) (GLP-1R [2]; Gα11): 0
- Emax (GLP-1R [2]; Gα11): 0
- Potency (logEC50) (GLP-1R [2]; Gα11): 0
- Efficacy (normalized) (GLP-1R [2]; Gα12): 0
- Emax (GLP-1R [2]; Gα12): 0
- Potency (logEC50) (GLP-1R [2]; Gα12): 0
- Efficacy (normalized) (GLP-1R [2]; Gα13): 0
- Emax (GLP-1R [2]; Gα13): 0
- Potency (logEC50) (GLP-1R [2]; Gα13): 0
- Efficacy (normalized) (GLP-1R [2]; Gα14): 0.9516
- Emax (GLP-1R [2]; Gα14): 0.02161
- Potency (logEC50) (GLP-1R [2]; Gα14): 0.7414
- Efficacy (normalized) (GLP-1R [2]; Gα15): 0
- Emax (GLP-1R [2]; Gα15): 0
- Potency (logEC50) (GLP-1R [2]; Gα15): 0
- Efficacy (normalized) (GLP-1R [2]; Gαi1): 0
- Emax (GLP-1R [2]; Gαi1): 0
- Potency (logEC50) (GLP-1R [2]; Gαi1): 0
- Efficacy (normalized) (GLP-1R [2]; Gαi2): 0
- Emax (GLP-1R [2]; Gαi2): 0
- Potency (logEC50) (GLP-1R [2]; Gαi2): 0
- Efficacy (normalized) (GLP-1R [2]; Gαi3): 0
- Emax (GLP-1R [2]; Gαi3): 0
- Potency (logEC50) (GLP-1R [2]; Gαi3): 0
- Efficacy (normalized) (GLP-1R [2]; GαoA): 0.4649
- Emax (GLP-1R [2]; GαoA): 0.009912
- Potency (logEC50) (GLP-1R [2]; GαoA): 0.573
- Efficacy (normalized) (GLP-1R [2]; GαoB): 0.7256
- Emax (GLP-1R [2]; GαoB): 0.03076
- Potency (logEC50) (GLP-1R [2]; GαoB): 0.2577
- Efficacy (normalized) (GLP-1R [2]; Gαq): 0
- Emax (GLP-1R [2]; Gαq): 0
- Potency (logEC50) (GLP-1R [2]; Gαq): 0
- Efficacy (normalized) (GLP-1R [2]; Gαs): 0
- Emax (GLP-1R [2]; Gαs): 0
- Potency (logEC50) (GLP-1R [2]; Gαs): 0
- Efficacy (normalized) (GLP-1R [2]; Gαz): 0.5189
- Emax (GLP-1R [2]; Gαz): 0.05365
- Potency (logEC50) (GLP-1R [2]; Gαz): 0.2291
- Efficacy (normalized) (GLP-1R [2]; βARR2): 0.458
- Potency (logEC50) (GLP-1R [2]; βARR2): 0.384
- Emax (GLP-1R [2]; GRK/Gβγ): 0.1194
- Emax (GLP-1R [2]; βARR): 0.07877
- mGs recruitment at early endosomes, in words (GLP-1R [2]; Rluc8-mGs, rGFP-FYVE, 60 min, n = 3): did not promote mGs recruitment at early endosomes at the concentrations tested
- z-scores (GLP-1R [3]): -0.3536
- drug cluster (hierarchical / k-means) (GLP-1R [3]; efficacy and potency, 15 pathways, 4 compartments): 4
- defining cluster features, in words (GLP-1R [3]; k-means cluster centers): endoplasmic reticulum-localized recruitment of mGs and decreased recruitment of βARR at the plasma membrane
- log2.foldchange, PABPN1 S19 ([4]; vs time-matched vehicle, p […], n = 3): 1.128
- log2.foldchange, VPS51 S13 ([4]; vs vehicle, p 0.15884, n = 3): -0.5399
- log2.foldchange, EIF3J S20 ([4]; vs vehicle, p 0.656982, n = 3): -0.08041
- log2.foldchange, EIF3J S11 ([4]; vs vehicle, p 0.693473, n = 3): -0.5463
- log2.foldchange, VPS51 S18 ([4]; vs vehicle, p 0.842243, n = 3): 0.02396
- kinase kinetics, in words [5]: distinctly different kinetics
- dominant_enrichment_value_log2, NUAK2 ([5]; 15min, log10 abs adjusted p 0.784095): 1.911
- dominant_enrichment_value_log2, PKACA ([5]; 15min, log10 abs adjusted p 0.96096): 2.68
- dominant_enrichment_value_log2, PRKD3 ([5]; 15min, log10 abs adjusted p 1.61335): 3.823
- dominant_enrichment_value_log2, PRKD2 ([5]; 15min, log10 abs adjusted p 1.89437): 2.877
- dominant_enrichment_value_log2, SIK ([5]; 15min, log10 abs adjusted p 3.68823): 3.799
